Results on 20 compounds are retold here after ChEMBL document CHEMBL6115027, “Bisboronic Ester-Enabled Redox-Targeted Cancer Therapy: A Cascade ROS Consumption Approach for Efficient Elimination of Cancer Cells” (J Med Chem, 2025).

Series [1] deals with HeLa. As to the kind of experiment: Cytotoxicity against human HeLa cells assessed as reduction in cell viability incubated for 24 hrs by CCK-8 assay. It is filed as functional, cell-based.
Another series concerns T-24. Put plainly: Cytotoxicity against human T24 cells assessed as reduction in cell viability incubated for 24 hrs by CCK-8 assay. The series is classed as functional, cell-based. Particulars: T-24, 24 h. (Tetrazolium assays rely on reduction of a dye to a coloured formazan, in cell work by metabolically active cells.)
The test system of series [2] is HeLa. As to the kind of experiment: Induction of ROS generation in human HeLa cells assessed as increase in ROS level incubated for 1 to 36 hrs by DCFH-DA staining based confocal imaging analysis. It is filed as functional, cell-based. Particulars: time 1-36 hrs.
Series [3] relates to HeLa. Put plainly: Induction of ROS generation in human HeLa cells assessed as increase in ROS level incubated for 48 hrs by DCFH-DA staining based confocal imaging analysis. The series is classed as functional, cell-based.
For series [4], the system named is HeLa. Put plainly: Induction of apoptosis in human HeLa cells assessed as viable cells at 6.8 uM incubated for 48 hrs by Annexin V-Alexa fluor 647 and propidium iodide staining based flow cytometry relative to control. The series is classed as functional. Particulars: read-out: Activity.
Series [5] has as its system HeLa. Put plainly: Induction of apoptosis in human HeLa cells assessed as early apoptotic cells at 6.8 uM incubated for 48 hrs by Annexin V-Alexa fluor 647 and propidium iodide staining based flow cytometry relative to control. It is filed as functional.
Series [6] concerns HeLa. As to the kind of experiment: Induction of apoptosis in human HeLa cells assessed as late apoptotic cells at 6.8 uM incubated for 48 hrs by Annexin V-Alexa fluor 647 and propidium iodide staining based flow cytometry relative to control. The series is classed as functional.
Series [7] relates to HeLa. Put plainly: Induction of apoptosis in human HeLa cells assessed as necrotic cells at 6.8 uM incubated for 48 hrs by Annexin V-Alexa fluor 647 and propidium iodide staining based flow cytometry relative to control. The series is classed as functional.
The test system of series [8] is HeLa. As to the kind of experiment: Induction of apoptosis in human HeLa cells assessed as viable cells at 13.6 uM incubated for 48 hrs by Annexin V-Alexa fluor 647 and propidium iodide staining based flow cytometry relative to control. Conditions: read-out: Activity. The series is classed as functional. In general terms: In flow cytometry, cells or beads pass a laser one at a time.

The test system of series [9] is HeLa. As to the kind of experiment: Induction of apoptosis in human HeLa cells assessed as early apoptotic cells at 13.6 uM incubated for 48 hrs by Annexin V-Alexa fluor 647 and propidium iodide staining based flow cytometry relative to control. The series is classed as functional.
Series [10] concerns HeLa. As to the kind of experiment: Induction of apoptosis in human HeLa cells assessed as late apoptotic cells at 13.6 uM incubated for 48 hrs by Annexin V-Alexa fluor 647 and propidium iodide staining based flow cytometry relative to control. It is filed as functional.
The test system of series [11] is HeLa. As to the kind of experiment: Induction of apoptosis in human HeLa cells assessed as necrotic cells at 13.6 uM incubated for 48 hrs by Annexin V-Alexa fluor 647 and propidium iodide staining based flow cytometry relative to control. It is filed as functional.
The test system of series [12] is HeLa. Put plainly: Induction of apoptosis in human HeLa cells assessed as viable cells at 27.2 uM incubated for 48 hrs by Annexin V-Alexa fluor 647 and propidium iodide staining based flow cytometry relative to control. The series is classed as functional. Particulars: read-out: Activity.
Series [13] concerns HeLa. Put plainly: Induction of apoptosis in human HeLa cells assessed as early apoptotic cells at 27.2 uM incubated for 48 hrs by Annexin V-Alexa fluor 647 and propidium iodide staining based flow cytometry relative to control. The series is classed as functional.
Series [14] deals with HeLa. Put plainly: Induction of apoptosis in human HeLa cells assessed as late apoptotic cells at 27.2 uM incubated for 48 hrs by Annexin V-Alexa fluor 647 and propidium iodide staining based flow cytometry relative to control. The series is classed as functional.
Series [15] deals with HeLa. As to the kind of experiment: Induction of apoptosis in human HeLa cells assessed as necrotic cells at 27.2 uM incubated for 48 hrs by Annexin V-Alexa fluor 647 and propidium iodide staining based flow cytometry relative to control. It is filed as functional.
Series [16] relates to HeLa. Put plainly: Induction of autophagy in human HeLa cells assessed as change in caspase 1 activity at 5.44 uM incubated for 48 hrs by MDC staining based flow cytometric analysis (reference value: 0.06). The series is classed as functional.
Series [17] deals with HeLa. Put plainly: Induction of autophagy in human HeLa cells assessed as change in caspase 1 activity at 10.88 uM incubated for 48 hrs by MDC staining based flow cytometric analysis (reference value: 0.06). It is filed as functional.
In series [18] the test system is HeLa. Put plainly: Induction of autophagy in human HeLa cells assessed as change in caspase 1 activity at 21.76 uM incubated for 48 hrs by MDC staining based flow cytometric analysis (reference value: 0.06). The series is classed as functional.
The subject of series [19] is HeLa. Put plainly: Induction of autophagy in human HeLa cells assessed as change in caspase 1 activity at 43.52 uM incubated for 48 hrs by MDC staining based flow cytometric analysis (reference value: 0.06. The series is classed as functional.
Series [20] deals with HeLa. Put plainly: Induction of autophagy in human HeLa cells assessed as change in caspase 1 activity at 87.04 uM incubated for 48 hrs by MDC staining based flow cytometric analysis (reference value: 0.06). The series is classed as functional.
Series [21] deals with HeLa. As to the kind of experiment: Induction of autophagy in human HeLa cells assessed as change in caspase 4 activity at 5.44 uM incubated for 48 hrs at wavelength of 405 nm by MDC staining based flow cytometric analysis (reference value: 0.052). It is filed as functional.
Series [22] has as its system HeLa. As to the kind of experiment: Induction of autophagy in human HeLa cells assessed as change in caspase 4 activity at 10.88 uM incubated for 48 hrs at wavelength of 405 nm by MDC staining based flow cytometric analysis (reference value: 0.052). The series is classed as functional.
In series [23] the test system is HeLa. Put plainly: Induction of autophagy in human HeLa cells assessed as change in caspase 4 activity at 21.76 uM incubated for 48 hrs at wavelength of 405 nm by MDC staining based flow cytometric analysis (reference value: 0.052). The series is classed as functional.
Series [24] concerns HeLa. Put plainly: Induction of autophagy in human HeLa cells assessed as change in caspase 4 activity at 43.52 uM incubated for 48 hrs at wavelength of 405 nm by MDC staining based flow cytometric analysis (reference value: 0.052). The series is classed as functional.
For series [25], the system named is HeLa. Put plainly: Induction of autophagy in human HeLa cells assessed as change in caspase 4 activity at 87.04 uM incubated for 48 hrs at wavelength of 405 nm by MDC staining based flow cytometric analysis (reference value: 0.052). It is filed as functional.
For series [26], the system named is HeLa. As to the kind of experiment: Induction of pyroptosis in human HeLa cells at 10.88 to 43.52 uM. The series is classed as functional, cell-based. Conditions: dose 10.88-43.52 µM.
Series [27] can be described thus: Reactivity of compound assessed as consumption of H2O2 by measuring phenol intermediate formation after 1 hr relative to control. The series is classed as physicochemical.

pIC50: −log10 of the molar value. The source made the active and inactive calls. The rule behind the calls is not given here.

Broadly, the pIC50 is the negative decadic logarithm of the IC50, by convention in mol/L. On to `CC1(C)COB(c2ccc(CCc3ccc(B4OCC(C)(C)CO4)cc3)cc2)OC1`, for which the pIC50 in the series on HeLa [1] is 6.06.

Consider `CC1(C)OB(c2cc(C(=O)Oc3ccc4c(c3)OCO4)cc(-c3cc(B4OC(C)(C)C(C)(C)O4)cc(C(=O)Oc4ccc5c(c4)OCO5)c3)c2)OC1(C)C`, for which, in the series with HeLa [1], the pIC50 was 6.00.

With `CC1(C)OB(c2ccc(Cc3ccc(B4OC(C)(C)C(C)(C)O4)c4ccccc34)cc2)OC1(C)C`, the negative-log IC50 (pIC50) in the series on HeLa [1] is 6.20.

On to `CC1(C)OB(c2ccc(CCc3ccc(B4OC(C)(C)C(C)(C)O4)cc3)cc2)OC1(C)C`, for which the negative logarithm of the IC50 (pIC50) in the series with HeLa [1] was 6.15.

Take `COc1ccc(-c2ccc(OC)c(B3OC(C)(C)C(C)(C)O3)c2)cc1B1OC(C)(C)C(C)(C)O1`: in the series on HeLa [1], the pIC50 is 6.08.

`CC1(C)OB(c2cc(C(F)(F)F)ccc2CCc2ccc(C(F)(F)F)cc2B2OC(C)(C)C(C)(C)O2)OC1(C)C`: in the series with HeLa [1], the pIC50 was 6.15.

Turning to `CC1(C)OB(c2ccc(-c3ccc(-c4ccc(-c5ccc(B6OC(C)(C)C(C)(C)O6)cc5)cc4)cc3)cc2)OC1(C)C`, the pIC50 with HeLa [1] was 5.64.

In the case of `Cc1cc(B2OC(C)(C)C(C)(C)O2)cc(-c2cc(C)cc(B3OC(C)(C)C(C)(C)O3)c2)c1`, the pIC50 in the series with HeLa [1] was 6.10.

For `CCC1(CC)OB(c2ccc(Cc3ccc(B4OC(C)(C)C(C)(C)O4)cc3)cc2)OC1(CC)CC`, the pIC50 in the series with HeLa [1] was 5.68.

For `CC(C)(C)c1cc(B2OC(C)(C)C(C)(C)O2)cc(-c2cc(B3OC(C)(C)C(C)(C)O3)cc(C(C)(C)C)c2)c1`, the pIC50 with HeLa [1] is 6.05.

In the case of `CC1(C)OB(c2ccc(CCc3ccc(B4OC(C)(C)C(C)(C)O4)c4ccccc34)c3ccccc23)OC1(C)C`, in the series on HeLa [1], the pIC50 is 5.46.

For the compound `CC1(C)OB(c2ccc(-c3ccc(B4OC(C)(C)C(C)(C)O4)c(F)c3)cc2F)OC1(C)C`, the pIC50 in the series on HeLa [1] was 5.59.

`CC1(C)OB(c2cc(F)ccc2CCc2ccc(F)cc2B2OC(C)(C)C(C)(C)O2)OC1(C)C`: the negative logarithm of the IC50 (pIC50) with HeLa [1] was 5.74.

As for `CC1(C)OB(c2ccc(F)c(CCc3cc(B4OC(C)(C)C(C)(C)O4)ccc3F)c2)OC1(C)C`, the results for the negative logarithm of the IC50 (pIC50) in the series with HeLa [1] and in the series on T-24 were 6.17 and 5.94, respectively. For the same compound, the outcome in the series on HeLa [2] was inactive. For the same compound, the outcome with HeLa [3] and with HeLa [26] was Active. Further, the viability at 6.8 µM with HeLa [4] turned out to be 96.1%. Also, the Activity in the series on HeLa [5] amounted to 1.43%; in the series with HeLa [6], 0.073%; with HeLa [7] it was 0.38%; with HeLa [9], 2.44%; in the series on HeLa [10], 0.41%; in the series with HeLa [11] it was 1.54%. Further, the Activity in the series on HeLa [13] is recorded as 4.28%; with HeLa [14] it was 0.63%; in the series on HeLa [15] it was 1.41%. Further, the viability at 13.6 µM in the series on HeLa [8] stood at 95.6%. The viability at 27.2 µM in the series with HeLa [12] stood at 93.7%. The OD is 0.058 in the series on HeLa [16]; 0.062 in the series on HeLa [17]; 0.06 in the series on HeLa [18]; 0.061 in the series with HeLa [19]; 0.062 in the series with HeLa [20]; 0.052 in the series with HeLa [21]. Further, the OD was determined as 0.053 with HeLa [22], 0.051 with HeLa [23], 0.051 with HeLa [24] and 0.051 in the series with HeLa [25].

In the case of `CC1(C)OB(c2ccc(-c3ccc(B4OC(C)(C)C(C)(C)O4)cc3)cc2)OC1(C)C`, in the series on HeLa [1], the pIC50 is 5.71. In addition, the Activity in series [27] is on record as 96%.

Regarding `CC1(C)COB(c2cccc(CCc3cccc(B4OCC(C)(C)CO4)c3)c2)OC1`, in the series with HeLa [1], the negative logarithm of the IC50 (pIC50) is 5.46.

Regarding `CC1(C)OB(c2ccc(Cc3ccc(B4OC(C)(C)C(C)(C)O4)cc3)cc2)OC1(C)C`, the negative logarithm of the IC50 (pIC50) in the series on HeLa [1] was 5.50.

On to `CC1(C)OB(c2cc(C(=O)Oc3ccc(-c4ccccc4)cc3)cc(-c3cc(B4OC(C)(C)C(C)(C)O4)cc(C(=O)Oc4ccc(-c5ccccc5)cc4)c3)c2)OC1(C)C`, for which the pIC50 in the series on HeLa [1] was 6.15.

For `CC1(C)OB(c2cccc(CCc3cccc(B4OC(C)(C)C(C)(C)O4)c3F)c2F)OC1(C)C`, the pIC50 in the series with HeLa [1] is 4.93.

On to `CC1(C)OB(c2ccc(-c3ccc(B4OC(C)(C)C(C)(C)O4)c4ccccc34)c3ccccc23)OC1(C)C`, for which the pIC50 with HeLa [1] was 6.16.
